Experimental data as given in PubChem BioAssay AID328 (DTP/NCI, 2004).
Values joined by “and” are separate entries in the source; they are usually repeats but may differ in a detail not shown here. Equal entries are not always repeated. Toxic doses and inconclusive results are not listed. How the source made its calls: active means survival T/C of 150% or more; inactive means T/C below 125% in these data.

Test system: BDF1 mice, P388 leukemia ip, median survival T/C
Assay: NCI In Vivo Anticancer Drug Screen. Data for tumor model P388 Leukemia (intraperitoneal) in B6D2F1 (BDF1) mice
Settings: endpoint: median survival time, higher = longer survival
Procedure, shortened: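 Compound-treated tumour-bearing mice were compared with vehicle-treated controls. Survival was recorded, and the value is the treated-group measurement divided by the control-group measurement (T/C).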

[1] = dose: 200.0 mg/kg/injection, schedule: Q01DX001 (ip), vehicle: saline with Tween-80
[2] = dose: 50.0 mg/kg/injection, schedule: Q04DX003 (ip), vehicle: saline
[3] = dose: 100.0 mg/kg/injection, schedule: Q04DX003 (ip), vehicle: saline
[4] = dose: 200.0 mg/kg/injection, schedule: Q04DX003 (ip), vehicle: saline
[5] = dose: 50.0 mg/kg/injection, schedule: Q01DX009 (ip), vehicle: saline with Tween-80
[6] = dose: 25.0 mg/kg/injection, schedule: Q04DX003 (ip), vehicle: saline
[7] = dose: 50.0 mg/kg/injection, schedule: Q01DX009 (ip), vehicle: saline
[8] = dose: 100.0 mg/kg/injection, schedule: Q01DX009 (ip), vehicle: saline
[9] = dose: 100.0 mg/kg/injection, schedule: Q01DX009 (ip), vehicle: saline with Tween-80
[10] = dose: 200.0 mg/kg/injection, schedule: Q01DX009 (ip), vehicle: saline with Tween-80

Measured: T/C

CCOC(=O)c1cc[nH]c1CC(=O)NC
inactive: [1] 112 % of control | dose: 400.0 mg/kg/injection, schedule: Q01DX001 (ip), vehicle: saline with Tween-80 112 % of control

CCC(C)C(NC(=O)CCN)C(=O)O (stereo unspecified)
inactive: dose: 50.0 mg/kg/injection, schedule: Q01DX005 (ip), vehicle: saline 104 % of control | dose: 100.0 mg/kg/injection, schedule: Q01DX005 (ip), vehicle: saline 103 % of control | dose: 200.0 mg/kg/injection, schedule: Q01DX005 (ip), vehicle: saline 100 % of control

O=CC(O)C(O)C(O)C(O)CO (stereo unspecified)
inactive: dose: 31.25 mg/kg/injection, schedule: Q01DX010 (ip), vehicle: saline 107 % of control | dose: 62.5 mg/kg/injection, schedule: Q01DX010 (ip), vehicle: saline 115 % of control | dose: 125.0 mg/kg/injection, schedule: Q01DX010 (ip), vehicle: saline 115 % of control | dose: 0.2 grams/kg/injection, schedule: Q03DX003 (ip), vehicle: water 96 % of control | dose: 250.0 mg/kg/injection, schedule: Q01DX010 (ip), vehicle: saline 107 % of control | dose: 0.4 grams/kg/injection, schedule: Q03DX003 (ip), vehicle: water 97 % of control | dose: 0.8 grams/kg/injection, schedule: Q03DX003 (ip), vehicle: water 102 % of control | dose: 1.5 grams/kg/injection, schedule: Q03DX003 (ip), vehicle: water 93 % of control | dose: 3.0 grams/kg/injection, schedule: Q03DX003 (ip), vehicle: water 102 % of control | dose: 6.0 grams/kg/injection, schedule: Q03DX003 (ip), vehicle: water 98 % of control | dose: 12.0 grams/kg/injection, schedule: Q03DX003 (ip), vehicle: water 95 % of control | dose: 16.0 grams/kg/injection, schedule: Q03DX003 (ip), vehicle: water 101 % of control

CCOc1nc(=O)n(C2CCOC2=O)cc1F (stereo unspecified)
inactive: dose: 100.0 mg/kg/injection, schedule: Q01DX001 (ip), vehicle: Klucel (hydroxypropylcellulose) (HPC) 100 % of control | dose: 200.0 mg/kg/injection, schedule: Q01DX001 (ip), vehicle: Klucel (hydroxypropylcellulose) (HPC) 100 % of control | dose: 400.0 mg/kg/injection, schedule: Q01DX001 (ip), vehicle: Klucel (hydroxypropylcellulose) (HPC) 104 % of control

CC1(C)OC(COCCOCCOCCCO)C(COCCOCCOCCCO)O1 (stereo unspecified)
inactive: dose: 100.0 mg/kg/injection, schedule: Q01DX001 (ip), vehicle: saline 112 % of control | dose: 100.0 mg/kg/injection, schedule: Q01DX001 (ip), vehicle: suspension in saline 100 % of control | dose: 200.0 mg/kg/injection, schedule: Q01DX001 (ip), vehicle: saline 111 % of control | dose: 200.0 mg/kg/injection, schedule: Q01DX001 (ip), vehicle: suspension in saline 98 % of control | dose: 400.0 mg/kg/injection, schedule: Q01DX001 (ip), vehicle: suspension in saline 120 % of control | dose: 800.0 mg/kg/injection, schedule: Q01DX001 (ip), vehicle: suspension in saline 100 % of control

CN(C)CCCNC(CC#N)CCC#N (stereo unspecified)
inactive: [2] 100 % of control | [3] 109 % of control | [4] 100 % of control

O=C(c1ccccc1)C1(Br)CCC1
inactive: dose: 100.0 mg/kg/injection, schedule: Q01DX009 (ip), vehicle: saline sonified 91 % of control | dose: 200.0 mg/kg/injection, schedule: Q01DX009 (ip), vehicle: saline sonified 100 % of control | dose: 400.0 mg/kg/injection, schedule: Q01DX009 (ip), vehicle: saline sonified 95 % of control

O=NN(CCCl)C(=O)Nc1cc2c3ccccc3ccc2c2ccccc12
inactive: dose: 50.0 mg/kg/injection, schedule: Q01DX009 (ip), vehicle: Klucel (hydroxypropylcellulose) (HPC) 121 % of control

Cc1cc(C)nc(NC(N)=NCCc2ccccc2)n1
inactive: dose: 12.5 mg/kg/injection, schedule: Q01DX009 (ip), vehicle: saline with Tween-80 100 % of control | dose: 25.0 mg/kg/injection, schedule: Q01DX009 (ip), vehicle: saline with Tween-80 95 % of control | [5] 100 % of control

CCOC(=S)SCC(=O)Nc1ccc(Cl)cc1
inactive: dose: 75.0 mg/kg/injection, schedule: Q01DX009 (ip), vehicle: saline with Tween-80 110 % of control | dose: 150.0 mg/kg/injection, schedule: Q01DX009 (ip), vehicle: saline with Tween-80 89 % of control | dose: 300.0 mg/kg/injection, schedule: Q01DX009 (ip), vehicle: saline with Tween-80 89 % of control

Nc1ccc2c(-c3ccccc3)cc(NCCCN3CCOCC3)nc2n1
inactive: [3] 104 % of control | [4] 100 % of control

NC1CONC1=O (stereo unspecified)
inactive: dose: 25.0 mg/kg/injection, schedule: Q01DX009 (ip), vehicle: saline 90 % of control | [6] 104 % of control | [7] 95 % of control | [2] 100 % of control | [8] 90 % of control | [3] 104 % of control | [4] 100 % of control | dose: 400.0 mg/kg/injection, schedule: Q01DX009 (ip), vehicle: saline 100 % of control | dose: 400.0 mg/kg/injection, schedule: Q04DX003 (ip), vehicle: saline 100 % of control

Cc1ncc(CO)c(C2NOCc3nscc32)c1O (stereo unspecified)
inactive: dose: 7.0 mg/kg/injection, schedule: Q01DX009 (ip), vehicle: Klucel (hydroxypropylcellulose) (HPC) 95 % of control | dose: 11.25 mg/kg/injection, schedule: Q01DX001 (ip), vehicle: saline 104 % of control | dose: 14.0 mg/kg/injection, schedule: Q01DX009 (ip), vehicle: Klucel (hydroxypropylcellulose) (HPC) 95 % of control | dose: 19.0 mg/kg/injection, schedule: Q04DX003 (ip), vehicle: saline 95 % of control | dose: 22.5 mg/kg/injection, schedule: Q01DX001 (ip), vehicle: saline 104 % of control | dose: 45.0 mg/kg/injection, schedule: Q01DX001 (ip), vehicle: saline 100 % of control | dose: 45.0 mg/kg/injection, schedule: Q04DX003 (ip), vehicle: saline 90 % of control

CC1CCCC(c2ccccc2)C1 (stereo unspecified)
inactive: dose: 50.0 mg/kg/injection, schedule: Q01DX001 (ip), vehicle: saline with Tween-80 109 % of control | dose: 100.0 mg/kg/injection, schedule: Q01DX001 (ip), vehicle: saline with Tween-80 109 % of control | [1] 109 % of control

CCC1(C)CCC2=C(CCC3C(C)(C(=O)O)CCCC23C)C1 (stereo unspecified)
inactive: [5] 100 % of control | dose: 50.0 mg/kg/injection, schedule: Q04DX003 (ip), vehicle: saline with Tween-80 96 % of control | [9] 87 % of control | [10] 100 % of control | dose: 200.0 mg/kg/injection, schedule: Q04DX003 (ip), vehicle: saline with Tween-80 96 % of control

CC1=NNC(=O)C1
inactive: dose: 100.0 mg/kg/injection, schedule: Q01DX001 (ip), vehicle: saline sonified 100 % of control | dose: 200.0 mg/kg/injection, schedule: Q01DX001 (ip), vehicle: saline sonified 100 % of control | dose: 400.0 mg/kg/injection, schedule: Q01DX001 (ip), vehicle: saline sonified 105 % of control

COc1ccc(SC/C(=N\NOS(=O)(=O)c2ccc(C)cc2)c2ccccc2)cc1
inactive: [7] 96 % of control | [8] 98 % of control | dose: 200.0 mg/kg/injection, schedule: Q01DX009 (ip), vehicle: saline 109 % of control

CC(=O)OCC(OC(C)=O)C(OC(C)=O)C(OC(C)=O)C(/C=N/NC(N)=S)=N/NC(N)=S (stereo unspecified)
inactive: dose: 50.0 mg/kg/injection, schedule: Q01DX009 (ip), vehicle: other 90 % of control | dose: 100.0 mg/kg/injection, schedule: Q01DX009 (ip), vehicle: other 100 % of control | dose: 100.0 mg/kg/injection, schedule: Q04DX003 (ip), vehicle: other 95 % of control | dose: 200.0 mg/kg/injection, schedule: Q01DX009 (ip), vehicle: other 100 % of control | dose: 200.0 mg/kg/injection, schedule: Q04DX003 (ip), vehicle: other 105 % of control | dose: 400.0 mg/kg/injection, schedule: Q04DX003 (ip), vehicle: other 120 % of control

COc1ccc(/C=C2\CCCC3=C2NC(=S)NC3c2ccc(OC)cc2)cc1 (stereo unspecified)
inactive: [5] 107 % of control | [9] 97 % of control | [10] 91 % of control

COc1cc(Cc2nccc3cc(OC)c(OC)cc23)c(C(C)=O)c(OC)c1
inactive: [4] 93 % of control
active: dose: 10.0 mg/kg/injection, schedule: Q01DX009 (ip), vehicle: saline 157 % of control and 190 % of control | dose: 20.0 mg/kg/injection, schedule: Q01DX009 (ip), vehicle: saline 163 % of control and 170 % of control | [6] 154 % of control | [2] 157 % of control | [3] 203 % of control and 206 % of control
